Tests used:
[1] = test system: SK-BR-3; test: Inhibition of proliferation of SK-BR-3 cells by compounds (CellTiter-Glo, 72 h); type: cell-based; details: SK-BR-3, 72 h incubation
Experimental: 3: Test method (1) Cell plating: first, tumor cells SK-BR-3 were cultured using a corresponding culture medium, trypsinized, centrifuged, resuspended for counting, adjusted to an appropriate concentration, and then plated on a 384-well plate. (2) Co-incubation of the compounds and tumor cells: after the cells adhered to the wall, 100 nL of a diluted bioactive substance (test compound) was added to the cell culture plate using ECHO, the final concentration of DMSO in wells of the cell plate was 0.33%, and the incubation was performed in an incubator at 37°C with 5% CO2 for 72 h. (3) After the incubation was complete, 30 µL of a CTG reagent (CelltiterGlo kit) was added to each well. The culture was oscillated on a fast oscillator for 2 min, centrifuged at 1,000 rpm for 1 min, and kept away from light at room temperature for 30 min. The chemiluminescence signal value was read using an Envision instrument. (4) Cell viability detection: IC50 was calculated using GraphPad Prism 8 software, and the IC50 of the compounds was obtained using the following nonlinear fitting formula (see Table 1) : 1. Y=Bottom+(Top-Bottom)/(1+10^((LogIC50-X)*HillSlope)) 2. […] Table 1 Antiproliferative activity of test compounds on SK-BR-3

[2] = test system: MDA-MB-468; test: Inhibition of proliferation of MDA-MB-468 cells by test compounds (CellTiter-Glo, 72 h); type: cell-based; details: MDA-MB-468, 72 h incubation
Experimental: 3: Test method • (1) Cell plating: first, tumor cells MDA-MB-468 were cultured using a corresponding culture medium, trypsinized, centrifuged, resuspended for counting, adjusted to an appropriate concentration, and then plated on a 384-well plate. • (2) Co-incubation of the compounds and tumor cells: after the cells adhered to the wall, 100 nL of a diluted bioactive substance (test compound) was added to the cell culture plate using ECHO, the final concentration of DMSO in wells of the cell plate was 0.33%, and the incubation was performed in an incubator at 37°C with […] for 72 h. • (3) After the incubation was complete, 30 µL of a CTG reagent (CelltiterGlo kit) was added to each well. The culture was oscillated on a fast oscillator for 2 min, centrifuged at 1,000 rpm for 1 min, and kept away from light at room temperature for 30 min. The chemiluminescence signal value was read using an Envision instrument. • (4) Cell viability detection: IC50 was calculated using GraphPad Prism 8 software, and the IC50 of the compounds was obtained using the following nonlinear fitting formula (see Table 2): • 6. Y=Bottom+(Top-Bottom)/(1+10^((LogIC50-X)*HillSlope)) • 7. […] Table 2 Antiproliferative activity of test compounds on MDA-MB-468

[3] = test system: NCI-N87; test: Inhibition of proliferation of NCI-N87 cells by test compounds (CellTiter-Glo, 72 h); type: cell-based; details: NCI-N87, 72 h incubation
Experimental: 3: Test method (1) Cell plating: first, tumor cells NCI-N87 were cultured using a corresponding culture medium, trypsinized, centrifuged, resuspended for counting, adjusted to an appropriate concentration, and then plated on a 384-well plate. (2) Co-incubation of the compounds and tumor cells: after the cells adhered to the wall, 100 nL of a diluted bioactive substance (test compound) was added to the cell culture plate using ECHO, the final concentration of DMSO in wells of the cell plate was 0.33%, and the incubation was performed in an incubator at 37°C with […] for 72 h. (3) After the incubation was complete, 30 µL of a CTG reagent (CelltiterGlo kit) was added to each well. The culture was oscillated on a fast oscillator for 2 min, centrifuged at 1,000 rpm for 1 min, and kept away from light at room temperature for 30 min. The chemiluminescence signal value was read using an Envision instrument. (4) Cell viability detection: IC50 was calculated using GraphPad Prism 8 software, and the IC50 of the compounds was obtained using the following nonlinear fitting formula (see Table 3) : 11. Y=Bottom+(Top-Bottom)/(1+10^((LogIC50-X)*HillSlope)) 12. […] Table 3 Antiproliferative activity of test compounds on cells NCI-N87

[4] = Stability of compounds in human plasma; type: in vitro ADME; details: 37°C, 5 µmol/L; for Residual percentage (%): 0 h; for remaining at 1 h, 5 µM / remaining at 2 h, 5 µM / remaining at 6 h, 5 µM / remaining at 24 h, 5 µM: read-out: Residual percentage (%)
Experimental: • (1) 199 µL of human plasma was added to the culture plate of each cell. The culture plate was preheated to 37°C, and kept at this temperature for 15 min. • (2) After preincubation, 1 µL of 1 mmol/L each test compound and 1 µL of 1 mmol/L control compound were added to 199 µL of plasma, so that a final concentration of each test compound was 5 µmol/L and that of the control compound was 5 µmol/L. The final concentration of the organic solvent was 0.5%. The experiment would be duplicated twice. • (3) Reaction samples were incubated at 37°C. • (4) The reaction was stopped by adding 600 µL of cold methanol containing the internal standard at 0, 1, 2, 6, and 24 h. Each sample was vortex mixed for 10 min, and then centrifuged at 3,220 g for 30 min to precipitate the protein. […] Based on the signal response and peak shapes of liquid chromatography-mass spectrometry (LC-MS), the supernatant would be diluted with ultrapure water.
All calculations were performed using Microsoft Excel. The peak area ratio was determined from the chromatogram of extracted ions. The percentage of compounds remaining at each time point was calculated as per the following formula: Residual percentagetmin (%) = peak area ratiotmin /peak areat0 × 100 [formula]

[5] = Stability of compounds in human plasma; type: in vitro ADME; details: 37°C, 5 µmol/L, read-out: Residual percentage (%)

| Compound | IC50 ([1]; Homo sapiens, SK-BR-3, 72 h) [nM] | IC50 ([2]; Homo sapiens, MDA-MB-468, 72 h) [nM] | IC50 ([3]; Homo sapiens, NCI-N87, 72 h) [nM] | Residual percentage (%) [4] [%] | remaining at 1 h, 5 µM [4] [%] | remaining at 2 h, 5 µM [4] [%] | remaining at 6 h, 5 µM [4] [%] | remaining at 24 h, 5 µM [4] [%] | remaining at 4 h, 5 µM [5] [%] | IC50 [1] [nM] | IC50 [2] [nM] | IC50 [3] [nM] |
| --- | --- | --- | --- | --- | --- | --- | --- | --- | --- | --- | --- | --- |
| CC[C@@]1(O)C(=O)OCc2c1cc1n(c2=O)Cc2c-1nc1cc(F)c(C)c3c1c2C(NC(=O)C[C@@H](C)O)CCC3 (single isomer, unassigned) [6-2] | 7.3 | 6.5 | 6.8 | 100.00 | 96.6 | 86.2 | 89 | 87 | 93.7 | – | – | – |
| CC[C@@]1(O)C(=O)OCc2c1cc1n(c2=O)Cc2c-1nc1cc(F)c(C3CC3)c3c1c2C(NC(=O)C[C@@H](C)O)CC3 (single isomer, unassigned) [17-2] | – | – | – | 100.00 | 90.1 | 89.3 | 97.1 | 102 | 93.8 | 6.6 | 8.1 | 5.3 |
| CC[C@@]1(O)C(=O)OCc2c1cc1n(c2=O)Cc2c-1nc1cc(F)c(C)c3c1c2[C@@H](NC(=O)[C@@H](O)C1CC1)CCC3 [11-2, (S)-2-cyclopropyl-N-((1S,10S)-10-ethyl-6-fluoro-10-hydroxy-5-methyl-11,14-dioxo-1,2,3,4,10,11,14,16-octahydro-13H-cyclohepta[de]pyrano[3',4':6,7]indolizino[1,2-b]quinolin-1-yl)-2-hydroxyacetamide] | – | – | – | 100.00 | 96.8 | 92.1 | 94.5 | 88.8 | 93.4 | – | – | – |

Reference: patent publication EP4692091A1, “CA[…], AND PHARMACEUTICAL COMPOSITION, PREPARATION METHOD THEREFOR AND USE THEREOF” (Changchun Genescience Pharmaceutical Co., Ltd., priority 2023, dated 2024)
